This is an account of results in patent US20160031868A1, “BENZIMIDAZOLONE DERIVATIVES AS BROMODOMAIN INHIBITORS” (GILEAD SCIENCES, INC., priority 2013, published 2016).

As usually defined, the CC50 is the concentration at which the toxic effect on the cells reaches its halfway point. The IC50 is the concentration that gives 50% inhibition.

Series [1] is described as follows: MT-4 proliferation assay in 384-well format (Cell Titer Glo). The format is cell-based, human. Conditions: human, MT-4 cells, Table 1, 50% decrease in luminescence signal, read-out: CC50 MT4 384. The protocol: (§1) Compounds were tested in a standardized high-throughput 384-well assay format. Each compound was serially diluted 3-fold in 100% DMSO in polypropylene 384-well plates using a Biomek FX Workstation, and 0.4 μL compound added to an assay plate containing 40 μL RPMI media. Compounds were arranged in a horizontal pattern, with 10 concentrations per compound, and 8 compounds added per plate. Due to low DMSO tolerability, the final DMSO concentration never exceeded 0.5% (v/v). Each assay plate contained 10 μM Puromycin and 0.5% DMSO in RPMI-1640 as positive and negative controls respectively. MT-4 cells (HTLV-1 transformed, human T lymphoblastoid cells, NIH Aids Reagent program) were added in volumes of 35 μL per well and 2,000 cells per well using a Biotek uFlow Workstation (Biotek, Winooski, Vt.), and the plates subsequently incubated for 5 days at 37° C. in an incubator set at 5% CO2 and 90% humidity.
(§2) After 5 days, 22 μL Cell Titer Glo (Promega) was added to the assay plates with a Biotek uFlow Workstation. Plates were subsequently placed on a Perkin Elmer Envision Plate Reader for 5 minutes before the luminescence signal was read. CC50 values were calculated from the compound concentration that caused a 50% decrease in luminescence signal, a measure of toxicity, and calculated by non-linear regression using Pipeline Pilot software (Accelrys, San Diego, Calif.).
In general terms: Cellular ATP, detected with luciferase, serves as a proxy for viable cell number.

For series [2], the target named is T1, BRD4-1 (Homo sapiens, UniProt O60885).
T1 construct: made in house; host or cells: Escherichia coli
Put plainly: Biochemical HTRF (TR-FRET) assay: BRD4-1 binding to acetylated histone H4 peptide. As to conditions: 200 nM H4 peptide, 60 nM BRD4-1, 60 min at 25 °C; geometric mean; read-out: IC50 HTBS BRD4-1 HTRF. The protocol:
(§3) Binding of the two tandem bromodomains, BRD4 I and BRD4—2, to an acetylated histone H4 peptide were measured using a homogeneous time resolved fluorescence resonance energy transfer (TR-FRET) assay. The synthetic peptide containing amino acids 1-18 of histone H4 was acetylated at lysine 5, 8, 12, 16 and conjugated to biotin ([…]-GSGSK-biotin) was purchased from Millipore. BRD4_I and BRD4—2 were expressed and purified from Escherichia coli as N-terminal His6-tagged proteins. An XL665 labeled anti-His antibody (Cisbio) was used to specifically bind BRD4 and a cryptate labeled streptavidin protein was used because it specifically recognized the biotinylated H4 peptide. […] Assays were performed in 50 mM Hepes (pH 7.5), 150 mM NaCl, 0.1 mg/ml BSA, 0.01% (v/v) Brij, 0.5% (v/v) DMSO and 200 nM H4 peptide at the following concentrations for each BRD4 isoform: 60 nM BRD4—1 and 120 nM BRD4—2. After an assay reaction time of 60 minutes at 25° C., binding was measured with 2 nM cryptate labeled streptavidin and 10 nM anti-His-XL665 antibody. TR-FRET signal was detected on an Envision plate reader (Ex: 320 nm; Em: 615/665 nm; 100 μs delay and 200 μs read window). Data were normalized based on a positive (2 μM I-BET) and negative (DMSO) controls and IC50 values were calculated from the fit of the dose-response curves to a four-parameter equation. All IC50 values represent geometric mean values of a minimum of four determinations. These assays generally produced results within 3-fold of the reported mean.

The target of the next series is T2, BRD4-2 (Homo sapiens, UniProt O60885).
T2 construct: made in house; host or cells: Escherichia coli
Put plainly: Biochemical HTRF (TR-FRET) assay: BRD4-2 binding to acetylated histone H4 peptide. Conditions: 200 nM H4 peptide, 120 nM BRD4-2, 60 min at 25 °C; geometric mean; read-out: IC50 HTBS BRD4-2 HTRF. On the procedure: as §3

For series [3], the target named is T1, BRD4-1. In words: Biochemical ALPHA assay: binding of BRD4_1 to acetylated histone H4 peptide. As to conditions: 200 nM H4 peptide, 15 nM BRD4_1, 60 min at 25 °C; geometric mean of min. four determinations. On the procedure:
Binding of the bromodomain BRD4_I to an acetylated histone H4 peptide was measured using a bead based Amplified Luminescent Proximity Homogeneous Assay (ALPHA). The synthetic peptide containing amino acids 1-18 of histone H4 was acetylated at lysine 5, 8, 12, 16 and conjugated to biotin ([…]-GSGSK-biotin) was purchased from Millipore. BRD4_I was expressed and purified from Escherichia coli as an N-terminal Hiss-tagged protein. Nickel-Chelate ALPHA acceptor beads (Perkin Elmer) were used to specifically bind BRD4—1 and ALPHA streptavidin donor beads (Perkin Elmer) were used because they specifically recognized the biotinylated H4 peptide. […] Assays were performed in 50 mM Hepes (pH 7.5), 150 mM NaCl, 0.1 mg/ml BSA, 0.01% (v/v) Brij, 0.5% (v/v) DMSO, 200 nM H4 peptide and 15 nM of BRD4—1 protein. After an assay reaction time of 60 minutes at 25° C., binding was measured with 20 µg/ml streptavidin donor beads and 20 μg/ml nickel-chelate acceptor beads. ALPHA signal was detected on an Envision plate reader ([…]; Em: 570 nm; Ex time: 180 ms). Data were normalized based on a positive (2 μM I-BET) and negative (DMSO) controls and IC50 values were calculated from the fit of the dose-response curves to a four-parameter equation. All IC50 values represent geometric mean values of a minimum of four determinations. These assays generally produced results within 3-fold of the reported mean.

The subject of a further series is MT-4 cells. Put plainly: MT-4 proliferation assay in 384-well format (Cell Titer Glo). Type of series: cell-based, human. Conditions: Table 1, 5 days, 50% decrease in luminescence signal, read-out: CC50 MT4 384. The protocol: as §1, §2

Consider `Cc1ccc2ncccc2c1-c1cc(-c2c(C)noc2C)cc2[nH]c(=O)[nH]c12` (racemic) [Example 2, 6-(3,5-dimethylisoxazol-4-yl)-4-(6-methylquinolin-5-yl)-1H-benzo[d]imidazol-2(3H)-one], for which, in series [1], the cytotoxic concentration (CC50) at 5 days worked out at 19 nM. Also, the figures for the IC50 at BRD4-1 [2], at BRD4-2 and at BRD4-1 [3] were 135 nM, 119 nM and 30.8 nM, respectively.

On to `Cc1ccc2ncccc2c1-c1cc(-c2c(C)noc2C)cc2[nH]c(=O)[nH]c12` (single isomer, unassigned) [Example 13], for which, in the series with MT-4 cells, the CC50 is 51.6 nM. At BRD4-1 [3], this compound returned a 50% inhibitory concentration (IC50) of 45.2 nM.

In the case of `Cc1ccc2ncccc2c1-c1cc(-c2c(C)noc2C)cc2[nH]c(=O)[nH]c12` (single isomer, unassigned) [Example 14], in the series on MT-4 cells, the 50% cytotoxic concentration (CC50) worked out at 9.54 nM. The compound further registered an IC50 at BRD4-1 [3] of 14 nM.

For `Cc1noc(C)c1-c1cc(S(=O)(=O)NC2CCCC2)c2[nH]c(=O)[nH]c2c1` [Example 1, N-cyclopentyl-6-(3,5-dimethylisoxazol-4-yl)-2-oxo-2,3-dihydro-1H-benzo[d]imidazole-4-sulfonamide], the CC50 at 5 days in series [1] came out at 1120 nM. Further, the IC50 amounted to 1410 nM on BRD4-1 [2] and 1070 nM at BRD4-2.

In the case of `Cc1noc(C)c1-c1cc(-c2c(C)noc2C)c2[nH]c(=O)[nH]c2c1` [Example 3, 4,6-bis(3,5-dimethylisoxazol-4-yl)-1H-benzo[d]imidazol-2(3H)-one], in series [1], the CC50 at 5 days was found to be 196 nM. Further, the figures for the half-maximal inhibitory concentration (IC50) on BRD4-1 [2] and at BRD4-1 [3] were 295 nM and 119 nM, respectively.

`Cc1noc(C)c1-c1cc(-c2cccnc2-c2ccccc2)c2[nH]c(=O)[nH]c2c1` [Example 4, 6-(3,5-dimethylisoxazol-4-yl)-4-(2-phenylpyridin-3-yl)-1H-benzo[d]imidazol-2(3H)-one]: the CC50 at 5 days in series [1] was determined as 103 nM. The 50% inhibitory concentration (IC50) on BRD4-1 [2] stood at 119 nM; on BRD4-2 it was 141 nM; at BRD4-1 [3], 37.2 nM.

For `Cc1cnn(C)c1-c1cc(-c2c(C)noc2C)cc2[nH]c(=O)[nH]c12` [Example 5], the CC50 at 5 days in series [1] came out at 233 nM. Besides, the IC50 at BRD4-1 [2] came to 350 nM; at BRD4-2, 144 nM; at BRD4-1 [3], 234 nM.

With `Cc1noc(C)c1-c1cc(-c2cccc3c2CCC(=O)N3C)c2[nH]c(=O)[nH]c2c1` [Example 6, 5-(6-(3,5-dimethylisoxazol-4-yl)-2-oxo-2,3-dihydro-1H-benzo[d]imidazol-4-yl)-1-methyl-3,4-dihydroquinolin-2(1H)-one], the CC50 at 5 days in series [1] worked out at 53.9 nM. Also, the results for the IC50 on BRD4-1 [2], at BRD4-2 and at BRD4-1 [3] were 132 nM, 108 nM and 46.8 nM, respectively.

Regarding `Cc1ccc2ncccc2c1-c1cc(-c2c(C)noc2C)cc2[nH]c(=O)n(C)c12` [Example 7, 5-(3,5-dimethylisoxazol-4-yl)-1-methyl-7-(6-methylquinolin-5-yl)-1H-benzo[d]imidazol-2(3H)-one], the CC50 at 5 days in series [1] is 17.5 nM. Besides, the IC50 at BRD4-1 [2] is 121 nM; on BRD4-2 it was 101 nM; on BRD4-1 [3], 37.3 nM.

On to `Cc1cnn(C)c1-c1cc(-c2c(C)noc2C)cc2[nH]c(=O)n(C)c12` [Example 8, 7-(1,4-dimethyl-1H-pyrazol-5-yl)-5-(3,5-dimethylisoxazol-4-yl)-1-methyl-1H-benzo[d]imidazol-2(3H)-one], for which the cytotoxic concentration (CC50) at 5 days in series [1] amounted to 117 nM. Also, the IC50 at BRD4-1 [2] was 511 nM; on BRD4-2 it was 168 nM; on BRD4-1 [3], 241 nM.

`Cc1noc(C)c1-c1cc(-c2c(C)noc2C)c2c(c1)[nH]c(=O)n2C` [Example 9]: in series [1], the cytotoxic concentration (CC50) at 5 days came to 204 nM. The IC50 on BRD4-1 [2] came to 497 nM; on BRD4-2, 227 nM; at BRD4-1 [3], 270 nM.

`Cc1noc(C)c1-c1cc(-c2c(C)noc2C)c2oc(=O)[nH]c2c1` [Example 10, 5,7-bis(3,5-dimethylisoxazol-4-yl)benzo[d]oxazol-2(3H)-one]: in series [1], the CC50 at 5 days worked out at 1030 nM. Also, the concentration for half-maximal inhibition (IC50) was 313 nM at BRD4-1 [2], 396 nM at BRD4-2 and 196 nM on BRD4-1 [3].

For `Cc1ccc2ncccc2c1-c1cc(-c2c(C)noc2C)cc2[nH]c(=O)oc12` [Example 11, 5-(3,5-dimethylisoxazol-4-yl)-7-(6-methylquinolin-5-yl)benzo[d]oxazol-2(3H)-one], the CC50 at 5 days in series [1] amounted to 421 nM. In addition, the half-maximal inhibitory concentration (IC50) amounted to 438 nM at BRD4-1 [2], 174 nM at BRD4-2 and 222 nM on BRD4-1 [3].

With `Cc1noc(C)c1-c1cc(-c2cccnc2-c2ccccc2)c2oc(=O)[nH]c2c1` [Example 12, 5-(3,5-dimethylisoxazol-4-yl)-7-(2-phenylpyridin-3-yl)benzo[d]oxazol-2(3H)-one], the cytotoxic concentration (CC50) at 5 days in series [1] was 761 nM. For the same compound, the figures for the IC50 at BRD4-1 [2], on BRD4-2 and at BRD4-1 [3] were 316 nM, 314 nM and 233 nM, respectively.
